Earlier results, collected in US20170245495A1, “CHEMICAL LURE FOR ASIAN CITRUS PSYLLID” (The Regents of the University of California, priority 2014, published 2017).
Where two headings read alike, the source gives them in different places.

Test system: D. citri
Conditions: Mann et al. 2012, Patt and Setamou 2010

| SMILES | attraction of D. citri (literature) | attraction of D. citri (literature) (listed as MeSA) |
| --- | --- | --- |
| C=C/C(C)=C/CC=C(C)C [β-ocimene, (E)-β-ocimene] | attractive to D. citri | – |
| COC(=O)c1ccccc1O [methyl salicylate] | implicated as D. citri attractants | attractant for D. citri |
| C=CC(C)(O)CCC=C(C)C (stereo not shown) [linalool] | attractive to D. citri | – |
